System: MV-4-11 cells
Experiment: Gene expression microarray analysis (Affymetrix PrimeView) and GSEA
Type: cell-based, human
Set-up: RFU PODN (11730768_x_at) / Fold change /veh PODN (11730768_x_at) / RFU LINC00158 (11744669_a_at) / Fold change /veh LINC00158 (11744669_a_at) / RFU DUSP10 (11751237_a_at) / Fold change /veh DUSP10 (11751237_a_at) / RFU ID3 (11757404_x_at) / Fold change /veh ID3 (11757404_x_at) / RFU PLEKHG5 (11737974_s_at) / Fold change /veh PLEKHG5 (11737974_s_at) / RFU LRRC4B (11730491_at) / Fold change /veh LRRC4B (11730491_at) / RFU GIMAP4 (11747438_a_at) / Fold change /veh GIMAP4 (11747438_a_at) / RFU KRT8 (11758183_x_at) / Fold change /veh KRT8 (11758183_x_at) / RFU CNN1 (11734310_a_at) / Fold change /veh CNN1 (11734310_a_at) / RFU VPS37D (11726825_at) / Fold change /veh VPS37D (11726825_at) / RFU C10orf10 (11716522_x_at) / Fold change /veh C10orf10 (11716522_x_at) / RFU KIR2DL2 /// KIR2DL4 /// KIR2DL5A /// KIR2DL5B /// KIR2DS1 /// KIR2DS2 /// KIR2DS3 /// KIR2DS4 /// KIR3DL3 /// KIR3DL3 /// KIR3DS1 (11738374_at) / Fold change /veh KIR2DL2 /// KIR2DL4 /// KIR2DL5A /// KIR2DL5B /// KIR2DS1 /// KIR2DS2 /// KIR2DS3 /// KIR2DS4 /// KIR3DL3 /// KIR3DL3 /// KIR3DS1 (11738374_at) / RFU C1QL1 (11718748_at) / Fold change /veh C1QL1 (11718748_at) / RFU TMPRSS4 (11747572_a_at) / Fold change /veh TMPRSS4 (11747572_a_at) / RFU HAMP (11756126_x_at) / Fold change /veh HAMP (11756126_x_at) / RFU RNFT2 (11725882_a_at) / Fold change /veh RNFT2 (11725882_a_at) / RFU NR4A2 (11747474_a_at) / Fold change /veh NR4A2 (11747474_a_at) / RFU ABCC12 (11746883_a_at) / Fold change /veh ABCC12 (11746883_a_at) / RFU TMEM136 (11760407_x_at) / Fold change /veh TMEM136 (11760407_x_at) / RFU CLDN22 /// WWC2 (11732394_at) / Fold change /veh CLDN22 /// WWC2 (11732394_at) / RFU HLA-DPB1 (11760878_x_at) / Fold change /veh HLA-DPB1 (11760878_x_at) / RFU SPINT1 (11716480_a_at) / Fold change /veh SPINT1 (11716480_a_at) / RFU GAP43 (11754022_s_at) / Fold change /veh GAP43 (11754022_s_at) / RFU A4GNT (11735810_at) / Fold change /veh A4GNT (11735810_at) / RFU PRB3 (11715151_x_at) / Fold change /veh PRB3 (11715151_x_at) / RFU TUBB4B (11761932_at) / Fold change /veh TUBB4B (11761932_at) / RFU CAPN14 (11732068_a_at) / Fold change /veh CAPN14 (11732068_a_at) / RFU TMCC2 (11721928_a_at) / Fold change /veh TMCC2 (11721928_a_at) / RFU IRGQ (11745062_a_at) / Fold change /veh IRGQ (11745062_a_at) / RFU FAM174B (11720279_a_at) / Fold change /veh FAM174B (11720279_a_at) / RFU TMPRSS4 (11748680_a_at) / Fold change /veh TMPRSS4 (11748680_a_at) / RFU FAM212B (11763350_a_at) / Fold change /veh FAM212B (11763350_a_at) / RFU PLEKHG5 (11743358_a_at) / Fold change /veh PLEKHG5 (11743358_a_at) / RFU ZSCAN30 (11745921_a_at) / Fold change /veh ZSCAN30 (11745921_a_at) / RFU CMKLR1 (11741424_a_at) / Fold change /veh CMKLR1 (11741424_a_at) / RFU LOC101060620 /// MAPK8IP1 (11723275_at) / Fold change /veh LOC101060620 /// MAPK8IP1 (11723275_at) / RFU SPTSSB (11747773_x_at) / Fold change /veh SPTSSB (11747773_x_at) / RFU PRSS12 (11739890_at) / Fold change /veh PRSS12 (11739890_at) / RFU BIN1 (11741810_x_at) / Fold change /veh BIN1 (11741810_x_at) / RFU WNT11 (11732464_a_at) / Fold change /veh WNT11 (11732464_a_at) / RFU C10orf10 (11716521_a_at) / Fold change /veh C10orf10 (11716521_a_at) / RFU C5orf56 (11738089_at) / Fold change /veh C5orf56 (11738089_at) / RFU CYB561 (11721691_x_at) / Fold change /veh CYB561 (11721691_x_at) / RFU ANKRD19P (11752326_a_at) / Fold change /veh ANKRD19P (11752326_a_at) / RFU OR2T12 /// OR2T33 /// OR2T8 (11738714_s_at) / Fold change /veh OR2T12 /// OR2T33 /// OR2T8 (11738714_s_at) / RFU VCAN (11748164_a_at) / Fold change /veh VCAN (11748164_a_at) / RFU JSRP1 (11732532_at) / Fold change /veh JSRP1 (11732532_at) / RFU KRTAP10-11 (11738290_x_at) / Fold change /veh KRTAP10-11 (11738290_x_at) / RFU MYO3A (11730013_a_at) / Fold change /veh MYO3A (11730013_a_at) / RFU EBF3 (11725865_a_at) / Fold change /veh EBF3 (11725865_a_at) / RFU CAMK2N1 (11719241_x_at) / Fold change /veh CAMK2N1 (11719241_x_at) / RFU C5orf56 (11738088_a_at) / Fold change /veh C5orf56 (11738088_a_at) / RFU OLFML3 (11715873_a_at) / Fold change /veh OLFML3 (11715873_a_at) / RFU LOC100653217 /// NTM (11731650_a_at) / Fold change /veh LOC100653217 /// NTM (11731650_a_at) / RFU MAPK11 (11762145_a_at) / Fold change /veh MAPK11 (11762145_a_at) / RFU FIZ1 (11724087_x_at) / Fold change /veh FIZ1 (11724087_x_at) / RFU OASL (11726364_x_at) / Fold change /veh OASL (11726364_x_at) / RFU SOX15 (11748057_x_at) / Fold change /veh SOX15 (11748057_x_at) / RFU CD79A (11719716_a_at) / Fold change /veh CD79A (11719716_a_at) / RFU HIST1H1D (11736915_at) / Fold change /veh HIST1H1D (11736915_at) / RFU CASKIN2 (11723855_a_at) / Fold change /veh CASKIN2 (11723855_a_at) / RFU LOC730098 (11760151_x_at) / Fold change /veh LOC730098 (11760151_x_at) / RFU OR4N2 (11742367_at) / Fold change /veh OR4N2 (11742367_at) / RFU PRRT2 (11749266_a_at) / Fold change /veh PRRT2 (11749266_a_at) / RFU SNX32 (11753110_a_at) / Fold change /veh SNX32 (11753110_a_at) / RFU CDHR5 (11726645_a_at) / Fold change /veh CDHR5 (11726645_a_at) / RFU RCAN1 (11760418_a_at) / Fold change /veh RCAN1 (11760418_a_at) / RFU FAM167A (11723789_a_at) / Fold change /veh FAM167A (11723789_a_at) / RFU FAM26E (11764081_at) / Fold change /veh FAM26E (11764081_at) / RFU ISYNA1 (11749810_s_at) / Fold change /veh ISYNA1 (11749810_s_at) / RFU ACY1 (11761880_at) / Fold change /veh ACY1 (11761880_at) / RFU 11764098_at / Fold change /veh 11764098_at / RFU SAMD14 (11745864_x_at) / Fold change /veh SAMD14 (11745864_x_at) / RFU NPB (11741838_a_at) / Fold change /veh NPB (11741838_a_at) / RFU TMPRSS6 (11731388_a_at) / Fold change /veh TMPRSS6 (11731388_a_at) / RFU KRTAP10-2 (11738614_at) / Fold change /veh KRTAP10-2 (11738614_at) / RFU ARHGAP8 /// PRR5-ARHGAP8 (11727945_x_at) / Fold change /veh ARHGAP8 /// PRR5-ARHGAP8 (11727945_x_at) / RFU KRTAP5-7 /// NADSYN1 (11734609_at) / Fold change /veh KRTAP5-7 /// NADSYN1 (11734609_at) / RFU RASL12 (11751679_a_at) / Fold change /veh RASL12 (11751679_a_at) / RFU CDKN2B (11736163_a_at) / Fold change /veh CDKN2B (11736163_a_at) / RFU PRF1 (11729649_at) / Fold change /veh PRF1 (11729649_at) / RFU, ZNF638 /// ZNF638-IT1 / Fold change vs veh, ZNF638 /// ZNF638-IT1 / RFU, PANK3 / Fold change vs veh, PANK3 / RFU, SH3YL1 / Fold change vs veh, SH3YL1 / RFU, ZEB2 / Fold change vs veh, ZEB2 / RFU, NRIP1 / Fold change vs veh, NRIP1 / RFU, PTTG1IP / Fold change vs veh, PTTG1IP / RFU, CAPN2 / Fold change vs veh, CAPN2 / RFU, MED14 / Fold change vs veh, MED14 / RFU, SNORA58 / Fold change vs veh, SNORA58 / RFU, C1orf63 / Fold change vs veh, C1orf63 / RFU, LRRFIP1 / Fold change vs veh, LRRFIP1 / RFU, NDUFAF7 / Fold change vs veh, NDUFAF7 / RFU, SLC12A2 / Fold change vs veh, SLC12A2 / RFU, IBTK / Fold change vs veh, IBTK / RFU, ESF1 / Fold change vs veh, ESF1 / Fold change vs veh, TMEM50B / RFU, TAOK1 / Fold change vs veh, TAOK1 / RFU, ACBD3 / Fold change vs veh, ACBD3 / RFU, TMA16 / Fold change vs veh, TMA16 / RFU, RWDD3 / Fold change vs veh, RWDD3 / RFU, BCAT1 / Fold change vs veh, BCAT1 / RFU, EDEM3 / Fold change vs veh, EDEM3 / RFU, TMEM33 / Fold change vs veh, TMEM33 / RFU, WDR75 / Fold change vs veh, WDR75 / RFU, AHCTF1 / Fold change vs veh, AHCTF1 / RFU, TFRC / Fold change vs veh, TFRC / RFU, ZDHHC17 / Fold change vs veh, ZDHHC17 / RFU, NOM1 / Fold change vs veh, NOM1 / RFU, ARL8B / Fold change vs veh, ARL8B / RFU, ZBTB11 / Fold change vs veh, ZBTB11 / RFU, TAMM41 / Fold change vs veh, TAMM41 / RFU, KIAA1704 /// LOC100996395 / Fold change vs veh, KIAA1704 /// LOC100996395 / RFU, ING1 / Fold change vs veh, ING1 / RFU, TRMT61B / Fold change vs veh, TRMT61B / RFU, FUBP3 / Fold change vs veh, FUBP3 / RFU, TP53 / Fold change vs veh, TP53 / RFU, TNKS2 / Fold change vs veh, TNKS2 / RFU, ZFP14 / Fold change vs veh, ZFP14 / RFU, ACTR2 / Fold change vs veh, ACTR2 / RFU, PPP3R1 / Fold change vs veh, PPP3R1 / RFU, PIK3R1 / Fold change vs veh, PIK3R1 / RFU, HNRNPA1 / Fold change vs veh, HNRNPA1 / RFU, RNF170 / Fold change vs veh, RNF170 / RFU, ZNF28 / Fold change vs veh, ZNF28 / RFU, RNGTT / Fold change vs veh, RNGTT / RFU, OGT / Fold change vs veh, OGT / RFU, BRD1 / Fold change vs veh, BRD1 / RFU, MARS / Fold change vs veh, MARS / RFU, ZNF655 / Fold change vs veh, ZNF655 / RFU, FAHD1 / Fold change vs veh, FAHD1 / RFU, BDP1 / Fold change vs veh, BDP1 / RFU, LRRCC1 / Fold change vs veh, LRRCC1 / RFU, ARID1A / Fold change vs veh, ARID1A / RFU, ZNF146 / Fold change vs veh, ZNF146 / RFU, ZNF330 / Fold change vs veh, ZNF330 / RFU, GPN3 / Fold change vs veh, GPN3 / RFU, C9orf123 / Fold change vs veh, C9orf123 / RFU, N4BP2L2 / Fold change vs veh, N4BP2L2 / RFU, ARFIP1 / Fold change vs veh, ARFIP1 / RFU, FAM179B / Fold change vs veh, FAM179B / RFU, BCL10 / Fold change vs veh, BCL10 / RFU, UHRF1BP1L / Fold change vs veh, UHRF1BP1L / RFU, BET1 / Fold change vs veh, BET1 / RFU, CNOT2 / Fold change vs veh, CNOT2 / RFU, ZNF268 / Fold change vs veh, ZNF268 / Fold change vs veh, ZNF507 / RFU, DGCR2 / Fold change vs veh, DGCR2 / RFU, WDSUB1 / Fold change vs veh, WDSUB1 / Fold change vs veh, HSP90B1 /// MIR3652 / RFU, ADSS / Fold change vs veh, ADSS / RFU, GK / Fold change vs veh, GK / RFU, ZNF148 / Fold change vs veh, ZNF148 / RFU, TAF9 / Fold change vs veh, TAF9 / RFU, SLC1A5 / Fold change vs veh, SLC1A5 / RFU, SLMO2 / Fold change vs veh, SLMO2 / RFU, ABCC4 / Fold change vs veh, ABCC4 / RFU, LOC101060439 /// RAP1B / Fold change vs veh, LOC101060439 /// RAP1B / RFU, RFX7 / Fold change vs veh, RFX7 / RFU, GTPBP10 / Fold change vs veh, GTPBP10 / RFU, CNEP1R1 / Fold change vs veh, CNEP1R1 / RFU, BIVM-ERCC5 /// ERCC5 / Fold change vs veh, BIVM-ERCC5 /// ERCC5 / RFU, ILF3 / Fold change vs veh, ILF3 / RFU 11762660_at / Fold change /veh 11762660_at / RFU VCAN (11757783_s_at) / Fold change /veh VCAN (11757783_s_at) / RFU DDX43 (11728927_at) / Fold change /veh DDX43 (11728927_at) / RFU KRT8 (11758188_x_at) / Fold change /veh KRT8 (11758188_x_at) / RFU NKD1 (11759106_at) / Fold change /veh NKD1 (11759106_at) / RFU SRD5A1 (11742802_a_at) / Fold change /veh SRD5A1 (11742802_a_at) / RFU TPSAB1 /// TPSB2 (11721975_s_at) / Fold change /veh TPSAB1 /// TPSB2 (11721975_s_at) / RFU GSTM3 (11746129_a_at) / Fold change /veh GSTM3 (11746129_a_at) / RFU IL23R (11737362_x_at) / Fold change /veh IL23R (11737362_x_at) / RFU TMEM51 (11727254_a_at) / Fold change /veh TMEM51 (11727254_a_at) / RFU PIWIL2 (11732686_x_at) / Fold change /veh PIWIL2 (11732686_x_at) / RFU ORM1 (11744905_x_at) / Fold change /veh ORM1 (11744905_x_at) / RFU CCDC152 (11743942_at) / Fold change /veh CCDC152 (11743942_at) / RFU ECM1 (11717891_a_at) / Fold change /veh ECM1 (11717891_a_at) / RFU IL23R (11748794_a_at) / Fold change /veh IL23R (11748794_a_at) / RFU TNFAIP8L3 (11732012_x_at) / Fold change /veh TNFAIP8L3 (11732012_x_at) / RFU MBOAT4 (11741988_at) / Fold change /veh MBOAT4 (11741988_at) / RFU 11764193_at / Fold change /veh 11764193_at / RFU TMEM53 (11763286_at) / Fold change /veh TMEM53 (11763286_at) / RFU MAGEB2 (11727129_at) / Fold change /veh MAGEB2 (11727129_at) / RFU TMEM200A (11744735_a_at) / Fold change /veh TMEM200A (11744735_a_at) / RFU CCDC152 (11751479_a_at) / Fold change /veh CCDC152 (11751479_a_at) / RFU FAM211A (11726209_a_at) / Fold change /veh FAM211A (11726209_a_at) / RFU RGS16 (11746705_a_at) / Fold change /veh RGS16 (11746705_a_at) / RFU VCAN (11755009_s_at) / Fold change /veh VCAN (11755009_s_at) / RFU RHOB (11743442_s_at) / Fold change /veh RHOB (11743442_s_at) / RFU RGS16 (11720943_a_at) / Fold change /veh RGS16 (11720943_a_at) / RFU RGS16 (11720944_at) / Fold change /veh RGS16 (11720944_at) / RFU, VPS4B / Fold change vs veh, VPS4B / RFU, CREB1 / Fold change vs veh, CREB1 / RFU, DNAJC13 / Fold change vs veh, DNAJC13 / RFU, GNAQ / Fold change vs veh, GNAQ / RFU, CDK5R1 / Fold change vs veh, CDK5R1 / RFU, ZRANB3 / Fold change vs veh, ZRANB3 / RFU, CUL4A / Fold change vs veh, CUL4A / RFU, CCNY / Fold change vs veh, CCNY / RFU, UFL1 / Fold change vs veh, UFL1 / RFU, COG3 / Fold change vs veh, COG3 / RFU, DIAPH2 / Fold change vs veh, DIAPH2 / RFU, SKA2 / Fold change vs veh, SKA2 / RFU, AFF3 / Fold change vs veh, AFF3 / RFU, LMF1 / Fold change vs veh, LMF1 / RFU, IPO11 / Fold change vs veh, IPO11 / RFU, DFFB / Fold change vs veh, DFFB / RFU, FOXP1 / Fold change vs veh, FOXP1 / RFU, CARD8 / Fold change vs veh, CARD8 / RFU, STRN3 / Fold change vs veh, STRN3 / RFU, ADK / Fold change vs veh, ADK / RFU, RASSF2 / Fold change vs veh, RASSF2 / RFU, WIPF1 / Fold change vs veh, WIPF1 / RFU, LARP1B / Fold change vs veh, LARP1B / RFU, RASA1 / Fold change vs veh, RASA1 / RFU, RB1 / Fold change vs veh, RB1 / RFU, PPFIA1 / Fold change vs veh, PPFIA1 / RFU, MAT2A / Fold change vs veh, MAT2A / RFU, CCT5 / Fold change vs veh, CCT5 / RFU, WDR92 / Fold change vs veh, WDR92 / RFU, CUX1 / Fold change vs veh, CUX1 / RFU, TTC7A / Fold change vs veh, TTC7A / RFU, TMEM135 / Fold change vs veh, TMEM135 / RFU, DEPTOR / Fold change vs veh, DEPTOR / RFU, CPM / Fold change vs veh, CPM / RFU, DNAJB6 / Fold change vs veh, DNAJB6 / RFU, CACNA2D3 / Fold change vs veh, CACNA2D3 / RFU, DTX4 / Fold change vs veh, DTX4 / RFU, TFCP2 / Fold change vs veh, TFCP2 / RFU, GMCL1 /// GMCL1P1 / Fold change vs veh, GMCL1 /// GMCL1P1 / RFU, AEBP2 / Fold change vs veh, AEBP2 / RFU, SNHG1 /// SNORD22 /// SNORD25 /// SNORD26 /// SNORD27 /// SNORD28 /// SNORD29 /// SNORD31 / Fold change vs veh, SNHG1 /// SNORD22 /// SNORD25 /// SNORD26 /// SNORD27 /// SNORD28 /// SNORD29 /// SNORD31 / Fold change (Aza/veh), C12orf56 (ProbeSet 11735607_a_at) / Fold change (ACY-1035/veh), C12orf56 (ProbeSet 11735607_a_at) / Fold change (Aza/veh), FGFR1OP (ProbeSet 11751329_s_at) / Fold change (ACY-1035/veh), FGFR1OP (ProbeSet 11751329_s_at) / Fold change (Aza/veh), VPS36 (ProbeSet 11739960_a_at) / Fold change (ACY-1035/veh), VPS36 (ProbeSet 11739960_a_at) / RFU SYPL1 (11715823_x_at) / Fold change /veh SYPL1 (11715823_x_at) / RFU IGFBP7 (11715501_s_at) / Fold change /veh IGFBP7 (11715501_s_at) / RFU REEP3 (11722064_at) / Fold change /veh REEP3 (11722064_at) / RFU IGLL1 (11728026_x_at) / Fold change /veh IGLL1 (11728026_x_at): dose or concentration left out as unconfirmed
Conditions: ProbeSet 11732165_x_at; LIST D

Nc1ccc(-c2cccs2)cc1NC(=O)c1ccc2c(c1)cc(C1CC1)n2CCN1CCOCC1 [ACY-1035]
RFU, LMF1: 59.92 RFU

— article PMC5218480 (PLoS ONE, 2017)
